Assays:
Plasmodium falciparum [1] = experiment: Resistance index, ratio for IC50 for chloroquine-resistant Plasmodium falciparum isolate RKL9 to IC50 for chloroquine-sensitive Plasmodium falciparum 3D7; assay type: functional
[2] = Therapeutic index, TC50 for human HeLa cells to IC50 for chloroquine-resistant Plasmodium falciparum isolate RKL9; assay type: cell-based; conditions: read-out: TI
[3] = Cytotoxic activity against human HeLa cells after 24 to 48 hrs by MTT assay; assay type: cell-based; conditions: read-out: TC50 (the source's name)
Plasmodium falciparum [4] = experiment: Antiplasmodial activity against blood stage of chloroquine-resistant Plasmodium falciparum isolate RKL9 infected in human O positive erythrocytes after 48 hrs by SYBR green I-based fluorescence assay; assay type: functional, organism-based; conditions: isolate RKL9, 48 h
Plasmodium falciparum [5] = experiment: Antiplasmodial activity against blood stage of chloroquine-sensitive Plasmodium falciparum 3D7 infected in human O positive erythrocytes after 48 hrs by SYBR green-I based fluorescence assay; assay type: functional, organism-based; conditions: 3D7, 48 h

Row | SMILES | Ratio IC50 (Plasmodium falciparum [1]) | selectivity ratio [2] | CC50 [3] | IC50 (Plasmodium falciparum [4]) | IC50 (Plasmodium falciparum [5])
1 | O=C(/C=C/c1ccc(Cl)cc1Cl)/C=C/c1ccc(Cl)cc1Cl | 1.08 | > 25 | > 269 µM | 10.8 µM | 9.94 µM
2 | O=C(/C=C/c1ccccc1)/C=C/c1ccccc1 | – | – | – | – | 213 µM
3 | O=C(/C=C/c1ccc(Br)cc1)/C=C/c1ccc(Br)cc1 | – | – | – | – | 222 µM
4 | O=C(/C=C/c1cccc([N+](=O)[O-])c1)/C=C/c1cccc([N+](=O)[O-])c1 | – | – | – | – | 38.5 µM
5 | C(=C\c1ccccc1)/C1=NN(c2ccccc2)C(c2ccccc2)C1 (configuration not stated) | – | – | – | – | > 308 µM
6 | Fc1ccc(/C=C/C2=NN(c3ccccc3)C(c3ccc(F)cc3)C2)cc1 (configuration not stated) | 1.21 | > 25 | > 277 µM | 11.1 µM | 9.1 µM
7 | COc1ccc(/C=C/C2=NN(c3ccccc3)C(c3ccc(OC)cc3)C2)cc1 (configuration not stated) | – | – | – | – | > 130 µM
8 | Cc1ccc(/C=C/C2=NN(c3ccccc3)C(c3ccc(C)cc3)C2)cc1 (configuration not stated) | – | – | – | – | > 142 µM
9 | CN(C)c1ccc(/C=C/C(=O)/C=C/c2ccc(N(C)C)cc2)cc1 | – | – | – | – | 156 µM
10 | COc1ccc(/C=C/C(=O)/C=C/c2ccc(OC)c(OC)c2)cc1OC | 0.85 | 166 | 282 µM | 1.69 µM | 1.97 µM
11 | O=C(/C=C/c1ccc(F)cc1)/C=C/c1ccc(F)cc1 | – | – | – | – | 133 µM
12 | O=C(/C=C/c1ccccc1Cl)/C=C/c1ccccc1Cl | 1 | 37 | 231 µM | 6.26 µM | 6.26 µM
13 | COc1ccccc1/C=C/C(=O)/C=C/c1ccccc1OC | – | – | – | – | 74.7 µM
14 | O=C(/C=C/c1ccc(Cl)cc1)/C=C/c1ccc(Cl)cc1 | – | – | – | – | 92.4 µM
15 | Cc1ccc(/C=C/C(=O)/C=C/c2ccc(C)cc2)cc1 | – | – | – | – | 114 µM
16 | COc1ccc(/C=C/C(=O)/C=C/c2ccc(OC)cc2)cc1 | – | – | – | – | 255 µM
